Laboratory results reported in the NIST ThermoML archive (doi:10.1016/j.jct.2008.05.014).

How the values were obtained:
[1] = Liquid; for speed of sound: Pulse-echo method
[2] = refractive index (Na D-line) (dimensionless); details: 298.15 K; 101.33 kPa; Liquid; Standard Abbe refractometry
[3] = xn = mol fraction of the nth substance listed; details: Liquid, x1 = 1; for speed of sound: Pulse-echo method

CCCCCCCCCCCC [dodecane]
[1]
Details	mass density [kg/m3]	speed of sound [m/s]
292.87 K, 15200 kPa	–	1384.9
292.87 K, 30390 kPa	–	1457.9
292.87 K, 45590 kPa	–	1524.1
292.87 K, 60790 kPa	–	1584.5
292.87 K, 75990 kPa	–	1640.7
292.87 K, 91180 kPa	–	1692.8
292.87 K, 101320 kPa	–	1725.8
292.89 K, 101 kPa	–	1299.5
293.15 K, 101 kPa	748.921	–
298.15 K, 101 kPa	745.269	–
298.16 K, 101 kPa	–	1278.9
298.16 K, 15200 kPa	–	1365.9
298.16 K, 30390 kPa	–	1440
298.16 K, 45580 kPa	–	1507
298.16 K, 60790 kPa	–	1568
298.16 K, 75990 kPa	–	1625.2
298.16 K, 91180 kPa	–	1677.7
298.16 K, 101320 kPa	–	1711.1
303.14 K, 30390 kPa	–	1423.8
303.14 K, 45590 kPa	–	1491.4
303.14 K, 60790 kPa	–	1553.1
303.14 K, 75990 kPa	–	1610.9
303.14 K, 91180 kPa	–	1664.1
303.14 K, 101320 kPa	–	1697.4
303.15 K, 101 kPa	741.636	1259.3
303.15 K, 15200 kPa	–	1348.5
308.12 K, 101 kPa	–	1240.2
308.13 K, 75990 kPa	–	1596.8
308.13 K, 91180 kPa	–	1650.9
308.14 K, 15200 kPa	–	1331
308.14 K, 30390 kPa	–	1407.6
308.14 K, 45590 kPa	–	1476.3
308.14 K, 60790 kPa	–	1538.6
308.15 K, 101 kPa	738.031	–
313.1 K, 101 kPa	–	1221
313.15 K, 101 kPa	734.369	–
313.21 K, 15200 kPa	–	1313.4
313.21 K, 30390 kPa	–	1391.1
313.21 K, 45590 kPa	–	1460.8
313.21 K, 60790 kPa	–	1524.1
313.21 K, 75990 kPa	–	1582.5
313.21 K, 91180 kPa	–	1637.3
313.21 K, 101320 kPa	–	1671.3
318.15 K, 101 kPa	730.715	–
318.29 K, 15200 kPa	–	1296.2
318.29 K, 30390 kPa	–	1375
318.29 K, 45590 kPa	–	1445.5
318.29 K, 60790 kPa	–	1509.7
318.29 K, 91180 kPa	–	1624.1
318.29 K, 101320 kPa	–	1658.5
318.3 K, 75990 kPa	–	1568.8
318.39 K, 101 kPa	–	1200.9

Details	refractive index
[2]	1.4197

CCCCCCC [heptane]
[1]
Details	mass density [kg/m3]	speed of sound [m/s]
292.83 K, 101 kPa	–	1153.2
292.88 K, 45590 kPa	–	1417.7
292.88 K, 60790 kPa	–	1485.5
292.88 K, 75990 kPa	–	1547.2
292.88 K, 91180 kPa	–	1605
292.88 K, 101320 kPa	–	1641.2
292.89 K, 15200 kPa	–	1257
292.89 K, 30390 kPa	–	1342.4
293.15 K, 101 kPa	683.803	–
298.12 K, 101 kPa	–	1130.1
298.15 K, 101 kPa	679.548	–
298.15 K, 15200 kPa	–	1236.7
298.15 K, 30390 kPa	–	1323.7
298.15 K, 45590 kPa	–	1400.1
298.15 K, 60790 kPa	–	1469.1
298.15 K, 91180 kPa	–	1589.7
298.15 K, 101320 kPa	–	1626.4
298.16 K, 75990 kPa	–	1531.6
303.1 K, 101 kPa	–	1108.5
303.13 K, 60790 kPa	–	1453.5
303.13 K, 91180 kPa	–	1575.6
303.13 K, 101320 kPa	–	1612.6
303.14 K, 30390 kPa	–	1306.4
303.14 K, 45590 kPa	–	1383.7
303.14 K, 75990 kPa	–	1517
303.15 K, 101 kPa	675.293	–
303.15 K, 15200 kPa	–	1217.8
308.08 K, 101 kPa	–	1087
308.12 K, 45590 kPa	–	1367.9
308.12 K, 75990 kPa	–	1502.7
308.12 K, 91180 kPa	–	1561.5
308.12 K, 101320 kPa	–	1599.1
308.13 K, 15200 kPa	–	1199.2
308.13 K, 30390 kPa	–	1289.3
308.13 K, 60790 kPa	–	1438.4
308.15 K, 101 kPa	671.015	–
313.06 K, 101 kPa	–	1065.6
313.1 K, 30390 kPa	–	1272.5
313.1 K, 45590 kPa	–	1352.5
313.1 K, 60790 kPa	–	1423.8
313.1 K, 75990 kPa	–	1488.7
313.1 K, 91180 kPa	–	1548.1
313.1 K, 101320 kPa	–	1585.7
313.11 K, 15200 kPa	–	1180.7
313.15 K, 101 kPa	666.684	–
318.15 K, 101 kPa	662.324	–
318.28 K, 15200 kPa	–	1161.8
318.28 K, 30390 kPa	–	1255.3
318.28 K, 45590 kPa	–	1336.5
318.28 K, 60790 kPa	–	1408.6
318.28 K, 75990 kPa	–	1474.4
318.28 K, 91180 kPa	–	1534.3
318.28 K, 101320 kPa	–	1572.3
318.35 K, 101 kPa	–	1043

Details	refractive index
[2]	1.3853

CCCCCCC [heptane] + CCCCCCCCCCCC
[3]
Details	mass density [kg/m3]	speed of sound [m/s]
292.83 K, 101 kPa	–	1153.2
292.88 K, 45590 kPa	–	1417.7
292.88 K, 60790 kPa	–	1485.5
292.88 K, 75990 kPa	–	1547.2
292.88 K, 91180 kPa	–	1605
292.88 K, 101320 kPa	–	1641.2
292.89 K, 15200 kPa	–	1257
292.89 K, 30390 kPa	–	1342.4
293.15 K, 101 kPa	683.803	–
298.12 K, 101 kPa	–	1130.1
298.15 K, 101 kPa	679.548	–
298.15 K, 15200 kPa	–	1236.7
298.15 K, 30390 kPa	–	1323.7
298.15 K, 45590 kPa	–	1400.1
298.15 K, 60790 kPa	–	1469.1
298.15 K, 91180 kPa	–	1589.7
298.15 K, 101320 kPa	–	1626.4
298.16 K, 75990 kPa	–	1531.6
303.1 K, 101 kPa	–	1108.5
303.13 K, 60790 kPa	–	1453.5
303.13 K, 91180 kPa	–	1575.6
303.13 K, 101320 kPa	–	1612.6
303.14 K, 30390 kPa	–	1306.4
303.14 K, 45590 kPa	–	1383.7
303.14 K, 75990 kPa	–	1517
303.15 K, 101 kPa	675.293	–
303.15 K, 15200 kPa	–	1217.8
308.08 K, 101 kPa	–	1087
308.12 K, 45590 kPa	–	1367.9
308.12 K, 75990 kPa	–	1502.7
308.12 K, 91180 kPa	–	1561.5
308.12 K, 101320 kPa	–	1599.1
308.13 K, 15200 kPa	–	1199.2
308.13 K, 30390 kPa	–	1289.3
308.13 K, 60790 kPa	–	1438.4
308.15 K, 101 kPa	671.015	–
313.06 K, 101 kPa	–	1065.6
313.1 K, 30390 kPa	–	1272.5
313.1 K, 45590 kPa	–	1352.5
313.1 K, 60790 kPa	–	1423.8
313.1 K, 75990 kPa	–	1488.7
313.1 K, 91180 kPa	–	1548.1
313.1 K, 101320 kPa	–	1585.7
313.11 K, 15200 kPa	–	1180.7
313.15 K, 101 kPa	666.684	–
318.15 K, 101 kPa	662.324	–
318.28 K, 15200 kPa	–	1161.8
318.28 K, 30390 kPa	–	1255.3
318.28 K, 45590 kPa	–	1336.5
318.28 K, 60790 kPa	–	1408.6
318.28 K, 75990 kPa	–	1474.4
318.28 K, 91180 kPa	–	1534.3
318.28 K, 101320 kPa	–	1572.3
318.35 K, 101 kPa	–	1043
